Consider six compounds from patent US20150239831A1, “INHIBITORS OF CENTRAL NERVOUS SYSTEM VASOACTIVE INHIBITORY PEPTIDE RECEPTOR 2” (The Trustees Of Columbia University In The City Of New York, priority 2012, published 2015).

The experiment addresses T1, VIPR2 (Homo sapiens, UniProt P41587).
T1 sequence (P41587 24-438): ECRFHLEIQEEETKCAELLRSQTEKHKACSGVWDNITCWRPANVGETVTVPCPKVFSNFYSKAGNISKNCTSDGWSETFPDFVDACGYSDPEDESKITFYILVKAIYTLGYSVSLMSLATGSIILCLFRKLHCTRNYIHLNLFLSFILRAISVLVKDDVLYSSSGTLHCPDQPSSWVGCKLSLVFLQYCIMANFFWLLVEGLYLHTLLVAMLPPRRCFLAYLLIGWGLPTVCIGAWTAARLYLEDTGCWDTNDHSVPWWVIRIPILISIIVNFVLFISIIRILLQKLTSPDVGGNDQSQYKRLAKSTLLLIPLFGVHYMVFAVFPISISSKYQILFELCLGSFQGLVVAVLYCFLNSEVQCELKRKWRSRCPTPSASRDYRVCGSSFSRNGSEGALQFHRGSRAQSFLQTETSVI
As to the kind of experiment: BRET-based VIPR2 activation assay (CAMYEL cAMP sensor, CHO cells, VIP background). The following applies: for VIPR2 inhibition in BRET-based assay (in words): FIG. 1C, FIG. 5. The format is cell-based. The text has this:
In such a system, a detector cell is used which expresses both the VIPR2 receptor and “CAMYEL,” a YFP-Epac-RLuc8 BRET sensor construct. This construct includes Epac1, a guanine nucleotide exchange factor activated by direct binding of cAMP, fused with an enhanced YFP and Renilla luciferase 8 (Rluc8) allowing BRET upon cAMP-induced conformational changes (Jiang et al., 2007, J Biol Chem. 282:10576-10584). In response to elevated cAMP levels, there is a conformational change in Epac and therefore a change in the proximity of the fused chromophores, Rluc8 and YFP, resulting in measurable energy transfer. Coexpression of this BRET construct with VIPR2, optionally tagged at the N-terminus with a signal peptide and FLAG epitope (SF-VIPR2), for example in HEK293 cells, allows for detection of a VIPR2-specific response to cAMP. BRET readout may be calculated by quantifying the ratio of the light emitted by the acceptor, YFP (λ=525 nm), over the emission from the donor, RLuc8 (λ=485 nm). The proximity of the donor and acceptor, and therefore the BRET ratio, decreases in the presence of cAMP. In non-limiting specific embodiments, a stable cell line may be generated for this assay using the Flp-In T-Rex system in HEK293 cells. This system allows site-specific single copy integration of the gene of interest and control of expression levels using the Tet-repressor site making receptor expression tetracycline-inducible. For example, a CAMYEL and VIPR2 expressing line may be induced with 0.01 μg/ml tetracycline, then, 24 hours later cells may be collected and distributed into 96-well plates. After treatment with candidate inhibitor compound, for example at 5, 1 and 0.5 μM concentrations, cells may be incubated with the light emitting luciferin, coelenterazine H, for 5 min and incubated for 5 min with VIP at increasing concentrations, for example ranging from […] to 10 μM. The fluorescence and luminescence may then be quantified, for example using a PHERAstar (BMG) plate reader. […] Alternatively, analogous experiments may be performed using human cells harvested from a patient having a VIPR2 copy number variation, for example (but not by way of limitation) pluripotent stem cells prepared from such a patient and then transfected with a CAMYEL construct.
Numerous cellular assays were developed that were able to detect VIP responses absent of interference from non-specific vasopressin receptors using this CHO based system. VIPR2 is a Gs coupled receptor. Activation of VIPR2 by VIP leads to both an elevation in cAMP signaling and the recruitment of β-arrestin. A variety of combinations can be transiently transfect into these CHO cells for the assessment of cellular responses to VIP. For the BRET readout CHO cell lines expressing an YFP-Epac-RLuc8 (CAMYEL) BRET sensor were used to detect changes in cAMP. This construct includes Epac1, a guanine nucleotide exchange factor activated by direct binding of cAMP, fused to an enhanced YFP and RLuc8 allowing a change in BRET upon cAMP-induced conformational changes. The key for medium to high throughput screening assays is the use of stable cell lines allowing the continuous assaying of multiple compounds with the ability to generate large numbers of cells for rapid use. In these lines VIPR2 was expressed as one of the stable cell lines assays. This was introduced into the CHO-Flp-IN to allow the generation of isogenic stable cell lines expressing high levels of VIPR2 under control of the CMV promoter. This has been introduced into this line together with the CAMYEL construct previously described. This allows for detection of VIPR2-specific responses to cAMP. EYFP fluorescence and RLuc8 luminescence is quantified in the presence of 5 μM light-emitting luciferin, coelenterazine H, using a PHERAstar (BMG) plate reader. BRET is calculated by quantifying the ratio of the light emitted by the acceptor, YFP (λ=525 nm), over the emission from the donor, RLuc8 (λ=485 nm).
3. […]
(In general: BRET reads energy transfer from a luciferase to a nearby fluorophore.)

[1] abbreviates: Table 2, read-out: BRET results (IC50).

One may read the IC50 as the concentration at which inhibition is half-maximal.

Structures are written as SMILES. Entries after “also recorded” stand apart in the source; their conditions may differ. Where two headings read alike, the source gives them in different places.

Take `N#Cc1ccc(S(=O)(=O)NC[C@@H](O)C[C@@H](Cc2ccccc2)C(=O)N[C@H]2c3ccccc3C[C@H]2O)cc1` [C]: the IC50 was found to be 1.33 µM (Table 1, read-out: IC50) and 1.33 µM under setting [1].
`CC(C)c1ccc(S(=O)(=O)NC[C@@H](O)C[C@@H](Cc2ccccc2)C(=O)N[C@H]2c3ccccc3C[C@H]2O)cc1` [Compound A10]: the IC50 under setting [1] was 3.44 µM.
For the compound `COc1ccc(S(=O)(=O)NC[C@@H](O)C[C@@H](Cc2ccccc2)C(=O)N[C@H]2c3ccccc3C[C@H]2O)cc1` [E], the IC50 came out at 1.02 µM (Table 1, read-out: IC50) and 1.02 µM under setting [1].
Regarding `O=C(N[C@H]1c2ccccc2C[C@H]1O)[C@H](Cc1ccccc1)C[C@H](O)CNS(=O)(=O)c1ccc(C(F)(F)F)cc1` [F], the “VIPR2 inhibition in BRET-based assay (in words)” value was “greater activity than Compound 1; also recorded: greater effect on V IPR2 inhibition than Compound 1”. Besides, the IC50 under setting [1] stood at 2.34 µM.
For the compound `Cc1ccc(S(=O)(=O)NC[C@@H](O)C[C@@H](Cc2ccccc2)C(=O)N[C@H]2c3ccccc3C[C@H]2O)cc1` [I], the IC50 runs as follows: (Table 1, read-out: IC50) 1.18 µM; under setting [1], 1.98 µM.
In the case of `CC(=O)c1ccc(S(=O)(=O)NC[C@@H](O)C[C@@H](Cc2ccccc2)C(=O)N[C@H]2c3ccccc3C[C@H]2O)cc1` [K], the “VIPR2 inhibition in BRET-based assay (in words)” value is “significantly improved activity as an antagonist at VIPR2”. Further, the IC50 (Table 1, read-out: IC50) was 0.426 µM. Also, the IC50 under setting [1] turned out to be 0.426 µM.
